The numbers were not newly measured in PMC8152572 (Chemical Science, 2020), which cites them from elsewhere.

In the data set the test system is scFv-SM3. The settings on record: SM3 antibody, comparison of 2a, 2b and 2c.

Turning to APDTRP [Compound 2c], the “binding to SM3 (in words)” value is given as “worse binding to the naked derivative 2c”.
